Assay results published in US6399370B1, “Compositions and methods for use of defensin” (priority 1996, dated 2002).
Bridge positions count the residues as written; N and C are the ends. Ends that are not written are not given here.

B1: mBD-1: murine β defensin, tested as lysates of SW 13 cells transfected with full length mBD-1 cDNA (protein)
chain: MKTHYFLLVMICFLFSQMEPGVGILTSLGRRTDQYKCLQHGGFCLRSSCPSNTKLQGTCKPDKPNCCKS

What was measured:
E. coli = assay: Colony count killing assay of synthetic hBD-1; type: cell-based, Escherichia coli; conditions: synthetic hBD-1, low NaCl
Description: (§1) Essentially, for assays involving Pseudomonas and Escherichia coli, approximately 5×10^4 bacterial cells were exposed to about 50 μg to 500 μg of synthetic hBD-1 in 10 mM phosphate buffer (pH 7.4) in a reaction volume of 100 μl. Samples were incubated at 37° C. for 20 minutes and were then diluted to 1 ml total volume with the corresponding test buffer. A volume of 100 μl of this solution and of two 10-fold serial dilutions thereof, were plated and incubated overnight at 37° C. to facilitate colony formation.

Escherichia coli [1] = assay: Broth culture assay of synthetic hBD-1 (optical density); type: cell-based; conditions: 500 μg synthetic hBD-1, 1×10^4 bacterial cells in 200 μl 0.25×LB, 7 hours, background subtracted; untreated 0.127
Description: A broth culture assay was also used to assess the antimicrobial activity of hBD-1 directed against Escherichia coli. In this instance, 1×10^4 bacterial cells in 200 μl of 0.25×LB broth were incubated at 37DC in the presence or absence of 500 μg of synthetic hBD-1. After 7 hours, the optical density at 630 nm of the cultures was recorded as a measure of bacterial growth. After subtraction of background due to growth medium, the average optical density of the untreated cultures was 0.127 whereas those containing hBD-1 was 0.004, indicating nearly complete suppression of bacterial growth.

Pseudomonas aeruginosa [2] = assay: Colony count killing and salt dependence assay of synthetic hBD-1; type: cell-based
Description: FIG. 7 is a graph depicting salt sensitivity of hBD-1 antimicrobial activity against Pseudomonas aeruginosa. Synthetic hBD-1 was incubated with 5×10^4 colony forming units of P. aeruginosa in 100 μl of 10 mM phosphate buffer (pH 7.4) and the indicated concentrations of NaCl. Reactions were then incubated at 37° C. for 20 minutes. Serial dilutions were plated and colony counts were performed the following day.
as §1
Salt dependence of antibiotic activity was measured essentially as described for α-defensins (Lehrer et al., 1983, supra; Selsted et al., 1984, supra). Briefly, approximately 5×10^4 bacterial cells were exposed to 50 μg of synthetic hBD-1 in 10 mM phosphate buffer (pH 7.4) containing varying concentrations of NaCl in a reaction volume of 100 μl. Reactions were incubated at 37° C. for 20 minutes and were then diluted to 1 ml total volume with the corresponding test buffer. […]

Escherichia coli [3] = assay: Antibiotic activity of extracts of 293 cells transfected with hBD-1 cDNA; type: cell-based; conditions: extracts of kidney cells transfected with full length hBD-1 cDNA; mock transfected did not
Description: (§2) Human embryonal kidney cells (293) (ATCC CRL 1573) grown in the absence of antibiotics were transfected with the pCMV mammalian reporter vector (Clontech) containing the full length hBD-1 cDNA. Transfected and control mock transfected cells were harvested at 24 to 48 hours postransfection, pelleted by centrifugation, resuspended in 10 mM phosphate buffer (pH 7.4) and lysed by brief sonication. Cell debris was removed by centrifugation and the resulting supernatant was tested for antibiotic activity. Approximately 10^3 or 10^4 bacteria were exposed to cell extracts for 2 hours in 10 mM phosphate buffer (pH 7.4) and cell viability was measured by plating several dilutions and counting colonies the following day.

Pseudomonas aeruginosa [4] = assay: as above; type: cell-based; conditions: extracts of kidney cells transfected with full length hBD-1 cDNA; mock transfected did not
Description: as §2

Staphylococcus aureus = assay: as above; type: cell-based; conditions: extracts of kidney cells transfected with full length hBD-1 cDNA; mock transfected did not
Description: as §2

[5] = test system: Staphylococcus aureus (clinical isolate); assay: Diffusion and liquid broth assays of lysates of mBD-1 transfected cells; type: cell-based; conditions: lysates of SW 13 cells transfected with mBD-1 cDNA
Description: (§3) FIG. 14 is a series of graphs depicting the results of antibacterial assays on mBD-1. In FIGS. 14A, 14B and 14C there is shown the results of antibacterial liquid broth coincubation assays. E. coli (FIG. 14A), S. aureus (FIG. 14B) and P. aertiginosa (FIG. 14C) were added at a concentration of 10^3 to 10^4 cfu to 50 μl of lysates obtained from cells transfected with vector containing full length mBD-1 cDNA (empty circles) or cells transfected with the vector alone (filled circles). Each circle shown represents the results of an individual transfection experiment. In FIG. 14D there is shown the salt sensitivity of the antimicrobial activity of mBD-1. Extracts of mBD-1 transfected cells were incubated with 5×10^4 colony-forming units of E. coli D31 in 100 mM phosphate buffer (pH 7.4) and the indicated concentrations of NaCl. After incubation at 37° C. for 1 hour, serial dilutions of bacteria were plated and colonies were counted the following day.
(§4) To test the antibacterial activity of mBD-1, lysates obtained from cells transfected with mBD-1 cDNA positioned in a transfection vector were analyzed. […]
(§5) Antibacterial liquid broth assays were performed as previously described for α-defensins (Steiner et al., 1981, Nature 292:246-248). […] Cell viability was measured by plating several dilutions and counting colonies the following day. […]

[6] = test system: Pseudomonas aeruginosa (clinical isolate); assay: as above; type: cell-based; conditions: lysates of SW 13 cells transfected with mBD-1 cDNA
Description: as §3, §4, §5

Escherichia coli D31 = assay: Diffusion and liquid broth assays of lysates of mBD-1 transfected cells, incl. salt and pH dependency; type: cell-based
Description: as §3
To test the antibacterial activity of mBD-1, lysates obtained from cells transfected with mBD-1 cDNA positioned in a transfection vector were analyzed. A clinical isolate of Staphylococcus aureus, Escherichia coli D31 (Steiner et al., 1981, Nature 292:246-248), and a clinical isolate of Pseudomonas aeruginosa were used as test organisms in both diffusion assays and liquid broth assays. […]
as §5
To analyze the salt dependency of the activity of mBD-1 against E. coli D31, NaCl was added to aliquots of the agarose solution to obtain final concentrations of NaCl of 50 mM, 100 mM, 200 mM and 500 mM. The exact concentration of NaCl in the solutions was measured using Na or Cl sensitive electrodes (Microelectrodes). […]

Row | Molecule | bactericidal activity (E. coli) | average optical density at 630 nm of cultures (bacterial growth) (Escherichia coli [1]) | hBD-1 concentrations at which bacterial killing was observed (Pseudomonas aeruginosa [2]; low NaCl, 10 mM phosphate buffer pH 7.4, 37° C., 20 minutes) | bactericidal activity (Pseudomonas aeruginosa [2]; synthetic hBD-1, low NaCl) | antibiotic activity of transfected cell extracts (Escherichia coli [3]) | antibiotic activity of transfected cell extracts (Pseudomonas aeruginosa [4]) | antibiotic activity of transfected cell extracts (Staphylococcus aureus) | antimicrobial activity of lysates [5] | antimicrobial activity of lysates [6] | antimicrobial activity of lysates (Escherichia coli D31; lysates of SW 13 cells transfected with mBD-1 cDNA, diffusion and liquid broth assays) | antimicrobial activity in acidic pH (Escherichia coli D31; lysates of mBD-1 transfected cells, acidic pH) | antimicrobial activity in high concentrations of NaCl (Escherichia coli D31; lysates of mBD-1 transfected cells, high NaCl)
1 | hBD-1: human β-defensin 1; synthetic mature peptide with disulfide bridges Cys5-Cys34, Cys12-Cys27, Cys17-Cys35; also tested as extracts of cDNA-transfected cells (DHYNCVSSGGQCLYSACPIFTKIQGTCYRGKAKCCK; disulfide 12-27, 17-35, 5-34; UniProt P60022 33-68, looked up) | potent bactericidal activity | 0.004 | 60 to 500 µg/mL | potent bactericidal activity | exhibited antibiotic activity | exhibited antibiotic activity | exhibited antibiotic activity |  |  |  |  | 
2 | B1 |  |  |  |  |  |  |  | active | active | active | substantially diminished and lost | substantially diminished and lost
